Experiment [1] addresses T1, human ANO6 (Homo sapiens, UniProt Q4KMQ2).
T1 construct: expressed in transfected cells
T1 sequence (Q4KMQ2 1-931 isoform Q4KMQ2-2): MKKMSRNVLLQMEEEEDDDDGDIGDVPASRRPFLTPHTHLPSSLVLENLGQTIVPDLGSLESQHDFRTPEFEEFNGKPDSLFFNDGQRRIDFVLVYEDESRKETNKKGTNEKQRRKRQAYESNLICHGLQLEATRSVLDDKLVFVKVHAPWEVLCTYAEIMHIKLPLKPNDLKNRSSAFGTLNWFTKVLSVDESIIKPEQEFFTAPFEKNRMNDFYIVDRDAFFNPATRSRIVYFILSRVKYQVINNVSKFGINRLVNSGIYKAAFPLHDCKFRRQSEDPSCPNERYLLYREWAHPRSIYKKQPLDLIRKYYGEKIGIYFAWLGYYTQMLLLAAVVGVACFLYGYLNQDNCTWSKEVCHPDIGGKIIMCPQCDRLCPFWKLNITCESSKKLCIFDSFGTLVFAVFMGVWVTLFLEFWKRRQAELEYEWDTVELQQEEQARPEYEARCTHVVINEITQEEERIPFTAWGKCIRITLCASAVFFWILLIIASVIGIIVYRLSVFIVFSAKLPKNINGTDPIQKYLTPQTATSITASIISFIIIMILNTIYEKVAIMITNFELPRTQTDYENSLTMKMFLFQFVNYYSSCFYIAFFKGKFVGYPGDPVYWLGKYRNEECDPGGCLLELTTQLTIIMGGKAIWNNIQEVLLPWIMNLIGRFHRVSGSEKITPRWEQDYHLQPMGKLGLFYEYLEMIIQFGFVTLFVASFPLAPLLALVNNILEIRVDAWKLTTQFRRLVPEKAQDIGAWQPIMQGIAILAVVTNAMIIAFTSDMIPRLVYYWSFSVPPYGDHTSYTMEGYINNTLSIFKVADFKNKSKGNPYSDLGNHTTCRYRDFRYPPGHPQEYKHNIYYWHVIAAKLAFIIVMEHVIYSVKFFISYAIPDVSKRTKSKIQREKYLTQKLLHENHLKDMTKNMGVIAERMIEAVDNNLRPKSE
As to the kind of experiment: YFP quenching assay (ANO6 ion channel activity). In kind it is cell-based. The following applies: 10 μM ionomycin; for inhibition at 1 µM: test compound 1 μM, read-out: Inhibition Level 1 μM; for inhibition at 30 µM: test compound 30 μM, read-out: Inhibition Level 30 μM. The gist of the method: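 FRT cells stably expressing human ANO6 and YFP-H148Q/I152L/F46L, preincubated 10 min at 40° C with compounds (1% DMSO) in PBS. Quench read every 0.4 s after injecting 140 mM SCN- with 10 μM ionomycin; % inhibition from the 3.6–7.6 s fluorescence difference, normalised to no-ionomycin (100%) and ionomycin-only (0%) wells, duplicate or triplicate.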

In experiment [2] the target is T1, human ANO6. As to the kind of experiment: LACT C2 assay (phosphatidylserine scramblase function assay). It is filed as cell-based. As to conditions: FRT cells expressing human ANO6, 10 μM ionomycin; for inhibition at 1 µM: test compound 1 μM, read-out: Inhibition Level 1 μM; for inhibition at 0.1 µM: test compound 100 nM, read-out: Inhibition Level 100 nM. A digest of the protocol: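 Inhibition was normalised between ionomycin-only (0%) and untreated (100%) wells, with triplicates averaged. Readout was background-corrected Lact-C2-GFP (500 nM) fluorescence from imaged cells. The cells were FRT cells stably expressing human ANO6, given compound at 1% DMSO for 10 min before a 10 min 10 μM ionomycin challenge.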

Consider `Cc1ccc(CNC(=O)c2cccc(Nc3ccc(-c4cccnc4)nn3)c2)o1` [Compound 10, N-[(5-methylfuran-2-yl)methyl]-3-{[6-(pyridin-3-yl)pyridazin-3-yl]amino}benzamide], for which, on human ANO6 [1], the inhibition (as a rule, the relative decrease from the control value, in per cent) at 1 µM was no less than 60% and the inhibition at 30 µM was no less than 60%. Further, at human ANO6 [2], the inhibition at 1 µM was less than 30%.
With `CC(C)(C)CNC(=O)c1cccc(Nc2ccc(-c3ccccc3)nn2)c1` [Compound 24, N-(2,2-dimethylpropyl)-3-[(6-phenylpyridazin-3-yl)amino]benzamide], the inhibition at 1 µM is 30 to 60% at human ANO6 [1] and less than 30% on human ANO6 [2]. Besides, the inhibition at 30 µM on human ANO6 [1] was no less than 60%.
With `O=C(NC1CCC1)c1cccc(Nc2ccc(-c3ccccc3)nn2)c1` [Compound 25, N-cyclobutyl-3-[(6-phenylpyridazin-3-yl)amino]benzamide], on human ANO6 [1], the inhibition at 1 µM fell in the range of 30 to 60% and the inhibition at 30 µM is no less than 60%. Also, on human ANO6 [2], the inhibition at 1 µM lay within 30 to 60%.
Take `O=C(Nc1cccc(F)c1)c1cccc(Nc2ccc(-c3ccccc3)nn2)c1` [Compound 29, N-(3-fluorophenyl)-3-[(6-phenylpyridazin-3-yl)amino]benzamide]: at human ANO6 [1], the inhibition at 1 µM is no less than 60% and the inhibition at 30 µM is no less than 60%. In addition, at human ANO6 [2], the inhibition at 0.1 µM fell in the range of 30 to 60% and the inhibition at 1 µM is no less than 60%.
Consider `O=C(NCC1CCC1)c1cccc(Nc2ccc(-c3ccccc3)nn2)c1` [Compound 30, N-(cyclobutylmethyl)-3-[(6-phenylpyridazin-3-yl)amino]benzamide], for which, at human ANO6 [1], the inhibition at 1 µM was no less than 60% and the inhibition at 30 µM was no less than 60%. Moreover, on human ANO6 [2], the inhibition at 1 µM was 30 to 60%.
Take `O=C(NCC1CCCCC1)c1cccc(Nc2ccc(-c3ccccc3)nn2)c1` [Compound 31, N-(cyclohexylmethyl)-3-[(6-phenylpyridazin-3-yl)amino]benzamide]: at human ANO6 [1], the inhibition at 1 µM was no less than 60% and the inhibition at 30 µM is no less than 60%. On human ANO6 [2], the inhibition at 0.1 µM is less than 30% and the inhibition at 1 µM was no less than 60%.
Take `O=C(NCC1CC1)c1cccc(Nc2ccc(-c3ccccc3)nn2)c1` [Compound 32, N-(cyclopropylmethyl)-3-[(6-phenylpyridazin-3-yl)amino]benzamide]: at human ANO6 [1], the inhibition at 1 µM is no less than 60% and the inhibition at 30 µM was no less than 60%. For the same compound, the inhibition at 1 µM on human ANO6 [2] is less than 30%.
Consider `O=C(NCC1CCCC1)c1cccc(Nc2ccc(-c3ccccc3)nn2)c1` [Compound 33, N-(cyclopentylmethyl)-3-[(6-phenylpyridazin-3-yl)amino]benzamide], for which, at human ANO6 [1], the inhibition at 1 µM is no less than 60% and the inhibition at 30 µM was no less than 60%. Moreover, on human ANO6 [2], the inhibition at 0.1 µM was less than 30% and the inhibition at 1 µM is no less than 60%.
In the case of `O=C(NCc1ccc(Cl)c(Cl)c1)c1cccc(Nc2ccc(-c3ccccc3)nn2)c1` [Compound 36, N-(3,4-dichlorobenzyl)-3-((6-phenylpyridazin-3-yl)amino)benzamide], at human ANO6 [1], the inhibition at 1 µM was no less than 60% and the inhibition at 30 µM is no less than 60%. Moreover, on human ANO6 [2], the inhibition at 0.1 µM fell in the range of 30 to 60% and the inhibition at 1 µM is no less than 60%.
Consider `O=C(NC1CC1)c1cccc(Nc2ccc(-c3ccccc3)nn2)c1` [Compound 38, N-cyclopropyl-3-[(6-phenylpyridazin-3-yl)amino]benzamide], for which the inhibition at 1 µM at human ANO6 [1] was no less than 60%; at human ANO6 [2], less than 30%. For the same compound, at human ANO6 [1], the inhibition at 30 µM is no less than 60%.
As for `O=C(NCc1cccs1)c1cccc(Nc2ccc(-c3ccccc3)nn2)c1` [Compound 39, 3-[(6-phenylpyridazin-3-yl)amino]-N-[(thiophen-2-yl)methyl]benzamide], at human ANO6 [1], the inhibition at 1 µM is no less than 60% and the inhibition at 30 µM was no less than 60%. The inhibition at 1 µM on human ANO6 [2] was less than 30%.
As for `Cc1ccc(CNC(=O)c2cccc(Nc3ccc(-c4ccccc4)nn3)c2)s1` [Compound 40, N-[(5-methylthiophen-2-yl)methyl]-3-[(6-phenylpyridazin-3-yl)amino]benzamide], at human ANO6 [1], the inhibition at 1 µM was no less than 60% and the inhibition at 30 µM is no less than 60%. Moreover, on human ANO6 [2], the inhibition at 0.1 µM is less than 30% and the inhibition at 1 µM is no less than 60%.
Regarding `CNC(=O)c1cccc(Nc2ccc(-c3ccccc3)nn2)c1` [Compound 41, N-methyl-3-[(6-phenylpyridazin-3-yl)amino]benzamide], at human ANO6 [1], the inhibition at 1 µM was in the range of 30 to 60% and the inhibition at 30 µM is no less than 60%. Moreover, the inhibition at 1 µM on human ANO6 [2] was less than 30%.
Take `O=C(NCc1ccsc1)c1cccc(Nc2ccc(-c3ccccc3)nn2)c1` [Compound 44, 3-[(6-phenylpyridazin-3-yl)amino]-N-[(thiophen-3-yl)methyl]benzamide]: the inhibition at 1 µM on human ANO6 [1] was no less than 60%; at human ANO6 [2], less than 30%.
For `O=C(NCc1ccoc1)c1cccc(Nc2ccc(-c3ccccc3)nn2)c1` [Compound 45, N-[(furan-3-yl)methyl]-3-[(6-phenylpyridazin-3-yl)amino]benzamide], in that order: no less than 60% and less than 30%.
Take `O=C(NCc1ccco1)c1cccc(Nc2ccc(-c3ccccc3)nn2)c1` [Compound 46, N-[(furan-2-yl)methyl]-3-[(6-phenylpyridazin-3-yl)amino]benzamide]: the inhibition at 1 µM at human ANO6 [1] and at human ANO6 [2] was 30 to 60% each time.
`O=C(NCCc1ccccc1)c1cccc(Nc2ccc(-c3ccccc3)cc2)c1` [Compound 50, 3-({[1,1′-biphenyl]-4-yl}amino)-N-(2-phenylethyl)benzamide]: the inhibition at 1 µM on human ANO6 [1] is no less than 60%; at human ANO6 [2], 30 to 60%.
Take `O=C(NCCc1ccccc1)c1cccc(Nc2cnc(-c3ccccc3)cn2)c1` [Compound 51, N-(2-phenylethyl)-3-[(5-phenylpyrazin-2-yl)amino]benzamide]: the inhibition at 1 µM on human ANO6 [1] and at human ANO6 [2] was no less than 60% each time. Besides, the inhibition at 0.1 µM at human ANO6 [2] was in the range of 30 to 60%.
For `O=C(NCCc1ccccc1)c1cccc(Nc2ncc(-c3ccccc3)cn2)c1` [Compound 52, N-(2-phenylethyl)-3-[(5-phenylpyrimidin-2-yl)amino]benzamide], the values for the inhibition at 1 µM on human ANO6 [1] and at human ANO6 [2] were no less than 60% and 30 to 60%, respectively.
The like results for `O=C(NCCCc1ccccc1)c1cccc(Nc2ccc(-c3ccccc3)cc2)c1` [Compound 53, 3-({[1,1′-biphenyl]-4-yl}amino)-N-(3-phenylpropyl)benzamide] were, in that order, no less than 60% and no less than 60%.
For `O=C(NCCCc1ccccc1)c1cccc(Nc2cnc(-c3ccccc3)cn2)c1` [Compound 54, N-(3-phenylpropyl)-3-[(5-phenylpyrazin-2-yl)amino]benzamide], in that order: no less than 60% and less than 30%.
As for `Cc1ccc(CNC(=O)c2cccc(Nc3ccc(-c4cccc(F)c4)cc3)c2)o1` [Compound 57, 3-({3′-fluoro-[1,1′-biphenyl]-4-yl}amino)-N-[(5-methylfuran-2-yl)methyl]benzamide], the inhibition at 1 µM at human ANO6 [1] and on human ANO6 [2] was no less than 60% each time. Further, the inhibition at 0.1 µM at human ANO6 [2] was less than 30%.
Take `Cc1ccc(CNC(=O)c2cccc(Nc3cnc(-c4cccc(F)c4)cn3)c2)o1` [Compound 58, 3-{[5-(3-fluorophenyl)pyrazin-2-yl]amino}-N-[(5-methylfuran-2-yl)methyl]benzamide]: the values for the inhibition at 1 µM on human ANO6 [1] and on human ANO6 [2] were no less than 60% and less than 30%, respectively.
With `O=C(NCCCc1ccccc1)c1cccc(Nc2ncc(-c3cccc(F)c3)cn2)c1` [Compound 60, 3-{[5-(3-fluorophenyl)pyrimidin-2-yl]amino}-N-(3-phenylpropyl)benzamide], at human ANO6 [1], the inhibition at 1 µM is no less than 60%. In addition, at human ANO6 [2], the inhibition at 0.1 µM lay in the range of 30 to 60% and the inhibition at 1 µM was no less than 60%.
For the compound `Cc1ccc(CNC(=O)c2cccc(Nc3ccc(C4CCCCC4)nn3)c2)o1` [Compound 63, 3-[(6-cyclohexylpyridazin-3-yl)amino]-N-[(5-methylfuran-2-yl)methyl]benzamide], the inhibition at 1 µM on human ANO6 [1] is 30 to 60%; on human ANO6 [2], less than 30%.

Values taken from patent US20230080054A1 (ILDONG PHARMACEUTICAL CO., LTD., priority 2021, published 2023).
